{"source": "patent US12138256B2", "about": "“Treatment of cardiopulmonary disorders” (Bayer Aktiengesellschaft, priority 2021, dated 2024)", "key": {"[1]": {"assay": "Storage stability of pseudopolymorphic forms (XRPD after storage)", "format": "physicochemical", "details": "25° C./60% and 40° C./75% relative humidity; listed as monohydrate II"}, "[2]": {"test_system": "anesthetized PAH minipigs", "assay": "PAH minipig model: intratracheal application of dry powder formulations and different hydrates (PennCentury insufflator)", "format": "in vivo, Göttingen minipig", "details": "for BP (mean) / PAP(mean) / BP % changes vs. prevalues / PAP % changes vs. prevalues: 375 μg/kg i.t.; for BP (mean) / PAP(mean): absolute values; for BP % changes vs. prevalues / PAP % changes vs. prevalues: each animal", "source_text": "After characterization of the effects of comparative example 11 after nebulization of compound solutions, in a further step the effects of crystalline forms of comparative example 11, e.g. sesquihydrate, e.g. example 6e on PAP and BP after inhaled application of different dry powder lactose formulations (table C2.1.8) were studied in anesthetized PAH minipigs.\nAs reference pure Lactose vehicle was applied in the beginning of each experiment."}, "[3]": {"assay": "Protein binding via Transil assay, rat plasma", "format": "in vitro ADME", "details": "Rat Wistar plasma, Transil assay", "source_text": "(§1) The distribution of a test substance between Transil® (phosphatidylcholine lipid bilayers immobilized on silica beads) and plasma is a characteristic feature of any pharmaceutical compound and is dependent on its extent of binding to plasma proteins. By comparing the distribution between Transil® and buffer with the distribution between Transil® and plasma of any species of interest, the unbound fraction in the plasma of the respective animal species can be calculated in vitro. The respective plasma and buffer concentrations were determined via a radioactivity analysis. A detailed description of the method and its validation was published by Schuhmacher et al. (2)."}, "[4]": {"assay": "Protein binding via Transil assay, monkey plasma", "format": "in vitro ADME", "details": "Monkey Cynomolgus plasma", "source_text": "as §1"}, "[5]": {"assay": "Protein binding via Transil assay, dog plasma", "format": "in vitro ADME", "details": "Dog Beagle plasma, Transil assay", "source_text": "as §1"}, "[6]": {"assay": "Protein binding via Transil assay, plasma of all species investigated (C-5.2)", "format": "in vitro ADME", "details": "Wistar (rat), Beagle (dog), plasma (Transil beads), read-out: free fractions", "source_text": "as §1"}}, "note": "“And” between values parts separate entries of the source, which are not always exact repeats. Identical values can stand only once.", "data": [{"molecule": "O=C(O)c1ccc(CCN(CCc2ccccc2OCc2ccc(-c3ccc(C(F)(F)F)cc3)cc2Cl)[C@H]2CCCc3nc(C(=O)O)ccc32)cc1", "note": "[example 2, (5S)-{[2-(4-Carboxyphenyl)ethyl][2-(2-{[3-chloro-4′-(trifluoromethyl)biphenyl-4-yl]methoxy}phenyl)-ethyl]amino}-5,6,7,8-tetrahydroquinoline-2-carboxylic acid]", "values": [{"measurement": "storage stability of the form", "setting": "[1]", "result": "underwent conversion to monohydrate I"}, {"measurement": "efficacy with regard to PAP reduction as well as systemic BP reduction", "setting": "[2]; 1.5 mg/4 kg (=375 μg/kg) intratracheally, micronized", "result": "comparable efficacy"}, {"measurement": "BP (mean)", "setting": "[2]; time 0", "result": "109 mmHg and 127 mmHg and 136 mmHg"}, {"measurement": "PAP(mean)", "setting": "[2]; time 0", "result": "35.8 mmHg and 38.7 mmHg and 39.7 mmHg"}, {"measurement": "BP (mean)", "setting": "[2]; time 10", "result": "110 mmHg and 126 mmHg and 135 mmHg"}, {"measurement": "PAP(mean)", "setting": "[2]; time 10", "result": "35.8 mmHg and 38.7 mmHg and 37.1 mmHg"}, {"measurement": "BP (mean)", "setting": "[2]; time 20", "result": "117 mmHg and 128 mmHg and 139 mmHg"}, {"measurement": "PAP(mean)", "setting": "[2]; time 20", "result": "38.9 mmHg and 38.2 mmHg and 40.2 mmHg"}, {"measurement": "BP (mean)", "setting": "[2]; time 30", "result": "121 mmHg and 128 mmHg and 139 mmHg"}, {"measurement": "PAP(mean)", "setting": "[2]; time 30", "result": "39.8 mmHg and 38.6 mmHg and 40.0 mmHg"}, {"measurement": "BP (mean)", "setting": "[2]; time 40", "result": "123 mmHg and 127 mmHg and 137 mmHg"}, {"measurement": "PAP(mean)", "setting": "[2]; time 40", "result": "40.4 mmHg and 39.0 mmHg and 40.7 mmHg"}, {"measurement": "BP (mean)", "setting": "[2]; time 50", "result": "120 mmHg and 127 mmHg and 135 mmHg"}, {"measurement": "PAP(mean)", "setting": "[2]; time 50", "result": "39.7 mmHg and 39.2 mmHg and 40.2 mmHg"}, {"measurement": "BP % changes vs. prevalues", "setting": "[2]; time 50", "result": "99.1% and 100.1% and 100.0%"}, {"measurement": "PAP % changes vs. prevalues", "setting": "[2]; time 50", "result": "99.1% and 99.2% and 98.5%"}, {"measurement": "BP (mean)", "setting": "[2]; time 60", "result": "121 mmHg and 127 mmHg and 136 mmHg"}, {"measurement": "PAP(mean)", "setting": "[2]; time 60", "result": "39.9 mmHg and 39.2 mmHg and 40.8 mmHg"}, {"measurement": "BP % changes vs. prevalues", "setting": "[2]; time 60", "result": "99.9% and 100.1% and 100.7%"}, {"measurement": "PAP % changes vs. prevalues", "setting": "[2]; time 60", "result": "99.7% and 99.3% and 99.8%"}, {"measurement": "BP (mean)", "setting": "[2]; time 70", "result": "124 mmHg and 126 mmHg and 137 mmHg"}, {"measurement": "PAP(mean)", "setting": "[2]; time 70", "result": "39.1 mmHg and 36.0 mmHg and 37.2 mmHg"}, {"measurement": "BP % changes vs. prevalues", "setting": "[2]; time 70", "result": "102.4% and 99.3% and 101.4%"}, {"measurement": "PAP % changes vs. prevalues", "setting": "[2]; time 70", "result": "97.7% and 91.1% and 91.0%"}, {"measurement": "BP (mean)", "setting": "[2]; time 80", "result": "123 mmHg and 124 mmHg and 135 mmHg"}, {"measurement": "PAP(mean)", "setting": "[2]; time 80", "result": "39.1 mmHg and 36.1 mmHg and 35.9 mmHg"}, {"measurement": "BP % changes vs. prevalues", "setting": "[2]; time 80", "result": "101.6% and 97.7% and 100.0%"}, {"measurement": "PAP % changes vs. prevalues", "setting": "[2]; time 80", "result": "97.7% and 91.3% and 88.0%"}, {"measurement": "BP (mean)", "setting": "[2]; time 90", "result": "122 mmHg and 125 mmHg and 134 mmHg"}, {"measurement": "PAP(mean)", "setting": "[2]; time 90", "result": "37.9 mmHg and 35.2 mmHg and 34.5 mmHg"}, {"measurement": "BP % changes vs. prevalues", "setting": "[2]; time 90", "result": "100.7% and 98.5% and 99.2%"}, {"measurement": "PAP % changes vs. prevalues", "setting": "[2]; time 90", "result": "94.7% and 89.1% and 84.5%"}, {"measurement": "BP (mean)", "setting": "[2]; time 100", "result": "122 mmHg and 124 mmHg and 132 mmHg"}, {"measurement": "PAP(mean)", "setting": "[2]; time 100", "result": "36.8 mmHg and 33.2 mmHg and 32.7 mmHg"}, {"measurement": "BP % changes vs. prevalues", "setting": "[2]; time 100", "result": "100.7% and 97.7% (2×)"}, {"measurement": "PAP % changes vs. prevalues", "setting": "[2]; time 100", "result": "91.8% and 84.0% and 80.0%"}, {"measurement": "BP (mean)", "setting": "[2]; time 110", "result": "122 mmHg and 125 mmHg and 133 mmHg"}, {"measurement": "PAP(mean)", "setting": "[2]; time 110", "result": "35.5 mmHg and 31.9 mmHg and 31.2 mmHg"}, {"measurement": "BP % changes vs. prevalues", "setting": "[2]; time 110", "result": "100.7% and 98.5% (2×)"}, {"measurement": "PAP % changes vs. prevalues", "setting": "[2]; time 110", "result": "88.8% and 80.9% and 76.3%"}, {"measurement": "BP (mean)", "setting": "[2]; time 120", "result": "121 mmHg and 125 mmHg and 132 mmHg"}, {"measurement": "PAP(mean)", "setting": "[2]; time 120", "result": "34.8 mmHg and 30.2 mmHg and 29.8 mmHg"}, {"measurement": "BP % changes vs. prevalues", "setting": "[2]; time 120", "result": "99.9% and 98.5% and 97.7%"}, {"measurement": "PAP % changes vs. prevalues", "setting": "[2]; time 120", "result": "87.0% and 76.6% and 73.0%"}, {"measurement": "BP (mean)", "setting": "[2]; time 130", "result": "120 mmHg and 124 mmHg and 131 mmHg"}, {"measurement": "PAP(mean)", "setting": "[2]; time 130", "result": "34.2 mmHg and 29.7 mmHg and 29.3 mmHg"}, {"measurement": "BP % changes vs. prevalues", "setting": "[2]; time 130", "result": "99.1% and 97.7% and 97.0%"}, {"measurement": "PAP % changes vs. prevalues", "setting": "[2]; time 130", "result": "85.5% and 75.2% and 71.7%"}, {"measurement": "BP (mean)", "setting": "[2]; time 140", "result": "119 mmHg and 125 mmHg and 131 mmHg"}, {"measurement": "PAP(mean)", "setting": "[2]; time 140", "result": "34.3 mmHg and 29.3 mmHg and 28.6 mmHg"}, {"measurement": "BP % changes vs. prevalues", "setting": "[2]; time 140", "result": "98.3% and 98.5% and 97.0%"}, {"measurement": "PAP % changes vs. prevalues", "setting": "[2]; time 140", "result": "85.6% and 74.3% and 70.0%"}, {"measurement": "BP (mean)", "setting": "[2]; time 150", "result": "117 mmHg and 124 mmHg and 130 mmHg"}, {"measurement": "PAP(mean)", "setting": "[2]; time 150", "result": "33.7 mmHg and 28.4 mmHg"}, {"measurement": "BP % changes vs. prevalues", "setting": "[2]; time 150", "result": "96.6% and 97.7% and 96.3%"}, {"measurement": "PAP % changes vs. prevalues", "setting": "[2]; time 150", "result": "84.1% and 71.9% and 69.4%"}, {"measurement": "BP (mean)", "setting": "[2]; time 160", "result": 117, "unit": "mmHg"}, {"measurement": "BP % changes vs. prevalues", "setting": "[2]; time 160", "result": "96.6% and 95.3% and 96.3%"}, {"measurement": "PAP % changes vs. prevalues", "setting": "[2]; time 160", "result": "84.1% and 70.4% and 68.1%"}, {"measurement": "BP % changes vs. prevalues", "setting": "[2]; time 170", "result": "95.8% and 94.5% and 95.5%"}, {"measurement": "PAP % changes vs. prevalues", "setting": "[2]; time 170", "result": "83.8% and 69.8% and 68.5%"}, {"measurement": "BP % changes vs. prevalues", "setting": "[2]; time 180", "result": "94.1% and 92.2% and 97.7%"}, {"measurement": "PAP % changes vs. prevalues", "setting": "[2]; time 180", "result": "83.8% and 68.7% and 68.9%"}, {"measurement": "BP % changes vs. prevalues", "setting": "[2]; time 190", "result": "92.5% and 91.4% and 98.5%"}, {"measurement": "PAP % changes vs. prevalues", "setting": "[2]; time 190", "result": "83.9% and 67.7% and 69.3%"}, {"measurement": "BP % changes vs. prevalues", "setting": "[2]; time 200", "result": "90.0% and 90.6% and 97.0%"}, {"measurement": "PAP % changes vs. prevalues", "setting": "[2]; time 200", "result": "83.7% and 67.9% and 68.5%"}, {"measurement": "BP % changes vs. prevalues", "setting": "[2]; time 210", "result": 90.8, "unit": "%"}, {"measurement": "PAP % changes vs. prevalues", "setting": "[2]; time 210", "result": "83.4% and 66.5% and 67.7%"}, {"measurement": "BP (mean)", "setting": "[2]; time −10", "result": "116 mmHg and 126 mmHg and 139 mmHg"}, {"measurement": "PAP(mean)", "setting": "[2]; time −10", "result": "37.9 mmHg and 37.8 mmHg and 39.4 mmHg"}]}, {"molecule": "O=C(O)CCCCN(CCc1ccccc1OCc1ccc(CCc2ccccc2)cc1)Cc1ccc(C(=O)O)cc1", "note": "[comparative example 1, 4-[((4Carboxybutyl)-{2-[(4-phenethylbenzyl)oxy]phenethyl}amino)methyl]benzoic acid]", "values": [{"measurement": "fraction unbound", "setting": "[3]", "result": 0.00351}, {"measurement": "fraction unbound", "setting": "[4]", "result": 0.000799}, {"measurement": "fraction unbound", "setting": "[5]", "result": 0.0112}, {"measurement": "fraction unbound", "setting": "[6]", "result": "< 0.01"}]}]}
